The record followed here is US20070021434A1, “NON-NUCLEOSIDE ANTI-HEPACIVIRUS AGENTS AND USES THEREOF” (Migenix Inc., priority 2005, published 2007).

Structures are written as SMILES. pIC50: −log10 of the molar value.

The target of the assay is HCV RdRp (NS5B) (UniProt P26663). In kind it is biochemical, hepatitis C virus.
Chain of HCV RdRp (NS5B) (P26663 whole entry, looked up): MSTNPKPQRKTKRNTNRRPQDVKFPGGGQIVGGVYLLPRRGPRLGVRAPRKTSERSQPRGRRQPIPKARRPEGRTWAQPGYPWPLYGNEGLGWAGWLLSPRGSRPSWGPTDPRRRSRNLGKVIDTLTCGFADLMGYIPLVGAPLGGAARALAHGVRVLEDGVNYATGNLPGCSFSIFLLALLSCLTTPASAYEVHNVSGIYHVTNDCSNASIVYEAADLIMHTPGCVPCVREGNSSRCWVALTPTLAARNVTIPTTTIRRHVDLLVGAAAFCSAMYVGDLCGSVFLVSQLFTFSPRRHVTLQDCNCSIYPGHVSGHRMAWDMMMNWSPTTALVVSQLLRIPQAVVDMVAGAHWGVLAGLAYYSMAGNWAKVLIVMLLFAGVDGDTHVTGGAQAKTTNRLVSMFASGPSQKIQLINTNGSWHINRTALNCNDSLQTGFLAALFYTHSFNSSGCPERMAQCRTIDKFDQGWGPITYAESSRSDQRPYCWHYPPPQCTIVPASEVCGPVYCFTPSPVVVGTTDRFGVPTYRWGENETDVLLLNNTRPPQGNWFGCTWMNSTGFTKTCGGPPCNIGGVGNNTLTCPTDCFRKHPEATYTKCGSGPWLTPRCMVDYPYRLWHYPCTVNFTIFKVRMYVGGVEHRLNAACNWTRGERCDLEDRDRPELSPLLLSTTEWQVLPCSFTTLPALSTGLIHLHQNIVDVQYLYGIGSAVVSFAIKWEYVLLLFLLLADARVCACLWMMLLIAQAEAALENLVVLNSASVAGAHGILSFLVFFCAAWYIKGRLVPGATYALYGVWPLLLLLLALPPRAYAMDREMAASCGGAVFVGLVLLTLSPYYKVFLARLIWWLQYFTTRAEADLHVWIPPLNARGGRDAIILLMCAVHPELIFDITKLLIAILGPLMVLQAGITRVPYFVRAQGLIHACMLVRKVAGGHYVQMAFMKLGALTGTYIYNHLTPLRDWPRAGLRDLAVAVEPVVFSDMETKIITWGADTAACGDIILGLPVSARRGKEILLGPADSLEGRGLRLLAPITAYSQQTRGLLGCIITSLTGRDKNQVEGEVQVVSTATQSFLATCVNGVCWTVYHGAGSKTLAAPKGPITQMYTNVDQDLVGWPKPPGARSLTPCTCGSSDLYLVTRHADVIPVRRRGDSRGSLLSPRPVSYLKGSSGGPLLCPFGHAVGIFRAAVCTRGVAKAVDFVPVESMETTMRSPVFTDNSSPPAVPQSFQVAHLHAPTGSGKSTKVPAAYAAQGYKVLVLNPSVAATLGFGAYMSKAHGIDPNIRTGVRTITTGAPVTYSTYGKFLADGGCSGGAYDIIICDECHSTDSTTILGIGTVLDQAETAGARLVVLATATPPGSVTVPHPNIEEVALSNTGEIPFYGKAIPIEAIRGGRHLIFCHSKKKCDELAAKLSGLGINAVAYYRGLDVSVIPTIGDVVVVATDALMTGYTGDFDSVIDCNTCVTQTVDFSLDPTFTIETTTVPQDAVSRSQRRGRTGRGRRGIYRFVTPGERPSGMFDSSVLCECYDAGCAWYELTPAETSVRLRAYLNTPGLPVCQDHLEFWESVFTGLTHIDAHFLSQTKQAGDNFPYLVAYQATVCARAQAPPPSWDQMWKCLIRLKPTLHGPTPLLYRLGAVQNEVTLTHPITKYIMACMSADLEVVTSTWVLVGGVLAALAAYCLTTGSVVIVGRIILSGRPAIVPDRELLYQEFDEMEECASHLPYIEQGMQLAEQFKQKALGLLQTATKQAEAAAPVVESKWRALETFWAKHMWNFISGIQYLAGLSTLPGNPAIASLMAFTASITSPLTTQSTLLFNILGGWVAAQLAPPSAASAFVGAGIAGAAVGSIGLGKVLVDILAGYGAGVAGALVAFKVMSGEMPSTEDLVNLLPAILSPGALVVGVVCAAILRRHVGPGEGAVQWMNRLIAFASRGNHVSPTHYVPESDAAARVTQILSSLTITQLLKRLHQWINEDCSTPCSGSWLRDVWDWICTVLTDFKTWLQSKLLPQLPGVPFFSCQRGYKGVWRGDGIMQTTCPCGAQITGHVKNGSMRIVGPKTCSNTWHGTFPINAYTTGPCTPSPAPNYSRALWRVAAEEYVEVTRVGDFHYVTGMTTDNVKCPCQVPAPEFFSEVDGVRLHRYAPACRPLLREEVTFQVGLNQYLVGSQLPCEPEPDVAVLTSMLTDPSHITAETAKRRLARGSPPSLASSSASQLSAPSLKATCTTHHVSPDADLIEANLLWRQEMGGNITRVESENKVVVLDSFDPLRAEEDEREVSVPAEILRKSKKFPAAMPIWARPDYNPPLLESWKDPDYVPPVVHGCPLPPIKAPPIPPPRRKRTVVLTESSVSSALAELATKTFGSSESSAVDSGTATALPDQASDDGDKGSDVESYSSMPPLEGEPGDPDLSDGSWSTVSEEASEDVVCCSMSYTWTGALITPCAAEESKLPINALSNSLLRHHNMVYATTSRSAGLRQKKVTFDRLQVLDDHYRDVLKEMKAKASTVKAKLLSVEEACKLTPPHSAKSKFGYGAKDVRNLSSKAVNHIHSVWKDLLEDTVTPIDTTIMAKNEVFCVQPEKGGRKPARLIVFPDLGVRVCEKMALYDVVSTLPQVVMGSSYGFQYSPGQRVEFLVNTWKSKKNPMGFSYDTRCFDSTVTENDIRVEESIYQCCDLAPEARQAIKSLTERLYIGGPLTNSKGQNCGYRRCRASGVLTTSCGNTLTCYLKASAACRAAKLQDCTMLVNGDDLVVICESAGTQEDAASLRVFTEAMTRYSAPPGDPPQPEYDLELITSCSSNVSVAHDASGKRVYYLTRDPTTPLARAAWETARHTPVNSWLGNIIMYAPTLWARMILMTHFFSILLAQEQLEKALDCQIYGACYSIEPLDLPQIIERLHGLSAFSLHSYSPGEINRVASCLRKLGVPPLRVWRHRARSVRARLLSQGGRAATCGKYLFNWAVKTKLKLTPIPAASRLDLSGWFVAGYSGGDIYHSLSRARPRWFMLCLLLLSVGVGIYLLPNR

As usually defined, the pIC50 is the negative decadic logarithm of the IC50, by convention in mol/L. Read a high pIC50 as a small IC50. The compound `Cc1cc2cc(NC(=O)CN(CCCCN)C(=O)OCC3c4ccccc4-c4ccccc43)ccc2[nH]1` [Compound 295, (4-AMINO-BUTYL)-[(2-METHYL-1H-INDOL-5-YLCARBAMOYL)-METHYL]-CARBAMIC ACID 9H-FLUOREN-9-YLMETHYL ESTER] gave a negative-log IC50 (pIC50) greater than 5.00.

`Cc1ccc(NC(=O)CC2CN(C(=O)C(C)N)CCN2C(=O)OCC2c3ccccc3-c3ccccc32)cc1` [Compound 184, 4-((S)-2-AMINO-PROPIONYL)-2-(P-TOLYLCARBAMOYL-METHYL)-PIPERAZINE-1-CARBOXYLIC ACID 9H-FLUOREN-9-YLMETHYL ESTER] gave a negative logarithm of the IC50 (pIC50) of less than 4.30.

As to `Cc1ccc(NC(=O)C(CCCCN)NC(=O)Nc2cc(C(F)(F)F)cc(C(F)(F)F)c2)cc1` [Compound 95, (S)-6-AMINO-2-[3-(3,5-BIS-TRIFLUOROMETHYL-PHENYL)-UREIDO]-HEXANOIC ACID P-TOLYLAMIDE], the pIC50 was 4.30 to 5.00.

In the case of `NCCCCCCNC(=O)C(NC(=O)Nc1ccc(OCc2ccccc2)cc1)c1ccccc1` [Compound 320, (R)-NR-(6-AMINO-HEXYL)-2-[3-(4-BENZYLOXY-PHENYL)-UREIDO]-2-PHENYL-ACETAMIDE], the pIC50 was greater than 5.00.

On to `C[C@@H](N)C(=O)Nc1ccc(CN(C(=O)c2ccco2)C2CCCCC2)cc1` [Compound 13, (R)-FURAN-2-CARBOXYLIC ACID [4-(2-AMINO-PROPIONYLAMINO)-BENZYL]-CYCLOHEXYL-AMIDE], for which the negative-log IC50 (pIC50) was less than 4.30.

`Cc1ccc(NC(=O)C(CCCCN)NC(=O)Nc2ccccc2-c2ccccc2)cc1` [Compound 73, (S)-6-AMINO-2-(3-BIPHENYL-2-YL-UREIDO)-HEXANOIC ACID P-TOLYLAMIDE] showed a pIC50 of less than 4.30.

`CSCCC(NC(=O)OCC1c2ccccc2-c2ccccc21)C(=O)Nc1ccc(C)cc1` (stereo not drawn) [Compound 112] showed a pIC50 of less than 4.30.

In turn, `N[C@@H](Cc1ccccc1)C(=O)Nc1ccc(CN(C(=O)c2ccco2)C2CCCCC2)cc1` [Compound 10, (S)-FURAN-2-CARBOXYLIC ACID [4-(2-AMINO-3-PHENYL-PROPIONYLAMINO) -BENZYL]-CYCLOHEXYL-AMIDE] gave a negative logarithm of the IC50 (pIC50) of less than 4.30.

For `Cc1ccc(NC(=O)C(CCCCN)NC(=O)CNCc2cccc(C(F)(F)F)c2)cc1` [Compound 351, (S)-6-AMINO-2-[2-(3-TRIFLUOROMETHYL-BENZYLAMINO)-ACETYLAMINO]-HEXANOIC ACID P-TOLYLAMIDE], the pIC50 was less than 4.30.

On to `Cc1ccc(NC(=O)C(CCCNC(=O)CN)NC(=O)OCC2c3ccccc3-c3ccccc32)cc1` [Compound 177, (S)-[4-(2-AMINO-ACETYLAMINO)-1-P-TOLYLCARBAMOYL-BUTYL]-CARBAMIC ACID 9H-FLUOREN-9-YLMETHYL ESTER], for which the pIC50 was greater than 5.00.

The compound `Cc1ccc(NC(=O)CC2CN(C(=O)CN)CCN2C(=O)OCC2c3ccccc3-c3ccccc32)cc1` (racemic) [Compound 182, (+/−)-4-(2-AMINO-ACETYL)-2-(P-TOLYLCARBAMOYL-METHYL)-PIPERAZINE-1-CARBOXYLIC ACID 9H-FLUOREN-9-YLMETHYL ESTER] showed a pIC50 of less than 4.30.

Consider `NCCCC[C@H](NC(=O)Nc1ccc(OCc2ccccc2)cc1)C(=O)Nc1cccc2cc[nH]c12` [Compound 307, (S)-6-AMINO-2-[3-(4-BENZYLOXY-PHENYL)-UREIDO]-HEXANOIC ACID (1H-INDOL-7-YL)-AMIDE], for which the pIC50 is 4.30 to 5.00.

`CC(C)NC(=O)[C@H](CCCCN)NC(=O)Nc1ccc(OCc2ccccc2)cc1` [Compound 291, (S)-6-AMINO-2-[3-(4-BENZYLOXY-PHENYL)-UREIDO]-HEXANOIC ACID ISOPROPYLAMIDE] had a negative-log IC50 (pIC50) of less than 4.30.

In turn, `O=C(N[C@@H](Cc1c[nH]c2ccccc12)C(=O)N(Cc1ccccc1)C1CCCCC1)OCC1c2ccccc2-c2ccccc21` [Compound 49, (S)-[1-(BENZYL-CYCLOHEXYL-CARBAMOYL)-2-(1H-INDOL-3-YL)-ETHYL]-CARBAMIC ACID 9H-FLUOREN-9-YLMETHYL ESTER] had a pIC50 of less than 4.30.

In turn, `Cc1ccc(NC(=O)C2CCCCN2C(=O)OCC2c3ccccc3-c3ccccc32)cc1` [Compound 123, (R)-2-P-TOLYLCARBAMOYL-PIPERIDINE-1-CARBOXYLIC ACID 9H-FLUOREN-9-YLMETHYL ESTER] showed a negative logarithm of the IC50 (pIC50) of less than 4.30.
